Test results published in PubChem BioAssay (NCI).
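Growth conditions: 96-well plates. Treatment: test compound, 48 hours, 5 concentrations. Analysis: linear interpolation between bracketing concentrations; unreached endpoints set to highest concentration. GI50 = concentration required for 50% inhibition of growth. TGI marks complete inhibition of growth.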

Experiments:
Test in all cases: NCI tumour cell line growth inhibition, 48 h
[1] = system: NCI-H23 lung
[2] = system: NCI-H460 lung
[3] = system: NCI-H522 lung
[4] = system: NCI/ADR-RES ovarian
[5] = system: OVCAR-3 ovarian
[6] = system: OVCAR-4 ovarian
[7] = system: OVCAR-5 ovarian
[8] = system: OVCAR-8 ovarian
[9] = system: PC-3 prostate
[10] = system: RPMI-8226 leukemia
[11] = system: RXF 393 renal
[12] = system: SF-268 CNS
[13] = system: SF-295 CNS
[14] = system: SF-539 CNS
[15] = system: SK-MEL-2 melanoma
[16] = system: SK-MEL-28 melanoma
[17] = system: SK-MEL-5 melanoma
[18] = system: SK-OV-3 ovarian
[19] = system: SN12C renal
[20] = system: SNB-19 CNS
[21] = system: SNB-75 CNS
[22] = system: SR leukemia
[23] = system: SW-620 colon
[24] = system: T-47D breast
[25] = system: TK-10 renal
[26] = system: U251 CNS
[27] = system: UACC-257 melanoma
[28] = system: UACC-62 melanoma
[29] = system: UO-31 renal

For `COc1ccc2oc(=O)cc(C3c4ccc([nH]4)C(c4cc(=O)oc5ccc(OC)cc45)c4ccc([nH]4)C(c4cc(=O)oc5ccc(OC)cc45)c4ccc([nH]4)C(c4cc(=O)oc5ccc(OC)cc45)c4ccc3[nH]4)c2c1` (configuration not stated), the TGI [1] was 6.42 µM, the GI50 [2] was 3.11 µM and the TGI [2] was 10.4 µM. The GI50 [3] was 1650 nM, the TGI [3] was 3.16 µM and the GI50 [4] was 594 nM. It also gave a TGI [4] of 24.8 µM, a GI50 [5] of 230 nM and a TGI [5] of 611 nM. For the same compound, the GI50 [6] was 1260 nM, the TGI [6] was 2780 nM and the GI50 [7] was 2980 nM. The TGI [7] was 11.1 µM, the GI50 [8] was 619 nM and the TGI [8] was 2780 nM. For the same compound, the GI50 [9] was 2210 nM, the TGI [9] was 6.76 µM and the GI50 [10] was 432 nM. For the same compound, the TGI [10] was 2040 nM, the GI50 [11] was 318 nM and the TGI [11] was 950 nM. It also gave a GI50 [12] of 2890 nM, a TGI [12] of 11.2 µM and a GI50 [13] of 2820 nM. The TGI [13] was 10.6 µM, the GI50 [14] was 1700 nM and the TGI [14] was 3.91 µM. It also gave a GI50 [15] of 3.02 µM, a TGI [15] of 9.5 µM and a GI50 [16] of 2480 nM. For the same compound, the TGI [16] was 12.9 µM, the GI50 [17] was 2210 nM and the TGI [17] was 9.07 µM. The GI50 [18] was 2450 nM, the TGI [18] was 7.33 µM and the GI50 [19] was 3.12 µM. For the same compound, the TGI [19] was 12.7 µM, the GI50 [20] was 5.48 µM and the TGI [20] was 18.3 µM. For the same compound, the GI50 [21] was 2710 nM, the TGI [21] was 14.8 µM and the GI50 [22] was 371 nM. It also gave a TGI [22] of 1660 nM, a GI50 [23] of 389 nM and a TGI [23] of 1690 nM. For the same compound, the GI50 [24] was 475 nM, the TGI [24] was 3.69 µM and the GI50 [25] was 1580 nM. It also gave a TGI [25] of 2950 nM, a GI50 [26] of 4 µM and a TGI [26] of 13.9 µM. The GI50 [27] was 2250 nM, the TGI [27] was 13.2 µM and the GI50 [28] was 2690 nM. For the same compound, the TGI [28] was 7.81 µM, the GI50 [29] was 1220 nM and the TGI [29] was 3.74 µM.
